In patent publication US7001619B2, “Hepatocurative effect of emblica officinalis against CYP 450 bio-activation hepatotoxicity of drugs” (Council of Scientific and Industrial Research, priority 2002, dated 2006):

Assays:
[1] = test system: hepatotoxicity produced by galactosamine; experiment: Hepatotoxicity produced by galactosamine (not dependent on CYP 450 bioactivation), LDH and GPT leakage; type: in vivo; settings: galactosamine alone
[2] = test system: hepatotoxicity produced by paracetamol; experiment: Hepatotoxicity produced by paracetamol (CYP 450 bioactivation), LDH and GPT release in serum; type: in vivo; settings: paracetamol alone
CYP 450 1A1 = target: T1, CYP 450 1A1 (Homo sapiens, UniProt P04798); settings: cited from earlier work
T1 sequence (P04798 1-512): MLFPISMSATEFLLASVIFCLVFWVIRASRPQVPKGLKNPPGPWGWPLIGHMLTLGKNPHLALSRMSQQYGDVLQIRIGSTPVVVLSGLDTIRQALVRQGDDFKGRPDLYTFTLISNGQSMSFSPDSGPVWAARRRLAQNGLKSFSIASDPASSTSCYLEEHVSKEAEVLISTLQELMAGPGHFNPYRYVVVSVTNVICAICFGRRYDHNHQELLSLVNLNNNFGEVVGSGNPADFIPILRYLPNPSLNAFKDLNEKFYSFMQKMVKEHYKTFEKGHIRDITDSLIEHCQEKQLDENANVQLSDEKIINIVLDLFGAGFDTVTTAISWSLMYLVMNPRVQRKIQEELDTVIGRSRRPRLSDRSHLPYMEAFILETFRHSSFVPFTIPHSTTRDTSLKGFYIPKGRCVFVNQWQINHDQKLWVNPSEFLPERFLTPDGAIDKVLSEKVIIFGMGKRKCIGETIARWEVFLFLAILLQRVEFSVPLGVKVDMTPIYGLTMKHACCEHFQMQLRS

## N[C@H]1C(O)O[C@H](CO)[C@H](O)[C@@H]1O (stereo partly drawn) [galactosamine]
[1]
  Toxicity: 93%

## CC(=O)Nc1ccc(O)cc1 [paracetamol]
[2]
  Toxicity: 93%

## O=C(/C=C/C=C/c1ccc2c(c1)OCO2)N1CCCCC1 [piperine]
CYP 450 1A1
  inhibition of CYP 450 1A1 (in words): specific inhibitor of CYP 450 1A1
